What follows are compounds tested on superior mesenteric artery (contracted by potassium chloride) (assay: Vessel Smooth Muscle Relaxation Action (V.R.)). Settings: Oryctolagus cuniculus; concentration relaxing KCl-contracted strain to 50%; cumulative administration; read-out: V.R. (ED50).
Type: cell-based, rabbit
From the text: The specimen was suspended by loading a strain in Krebs-Henseleit solution through which an oxygen gas containing 5% carbon dioxide was bubbled. The specimen was contracted by adding potassium chloride to maintain a predetermined strain. Thereafter, a test compound was cumulatively administrated.

Going from `O=S(=O)(NC(Cc1cnc[nH]1)CN1CCN(c2ccccc2)CC1)c1cccc2cnccc12` (stereo not drawn) [Example 2, N-[1-(Imidazol-4(5)-Yl-Methyl)-2-(4-Phenylpiperazinyl)Ethyl]-5-IsoquinolineSulfonamide] to `O=S(=O)(NC(Cc1ccc(O)cc1)CN1CCN(c2ccccc2)CC1)c1cccc2cnccc12` (stereo not drawn) [Example 37, N-[1-(p-hydroxybenzyl)-2-(4-phenylpiperazinyl)ethyl]-5-isoquinolinesulfonamide], the EC50 falls from 47 µM to 4.4 µM (11-fold). The second is the more potent here.

`CN(C(Cc1ccc(O)c(O)c1)CN1CCN(c2ccccc2)CC1)S(=O)(=O)c1cccc2cnccc12` (stereo not drawn) [Example 7, N-{1-[(3,4-Dihydroxyphenyl)Methyl]-2-(4-Phenylpiperazinyl)Ethyl}-N-Methyl-Isoquinoline Sulfonamide] and `O=S(=O)(NC(Cc1ccc(O)c(O)c1)CN1CCN(c2ccccc2)CC1)c1cccc2cnccc12` (stereo not drawn) [Example 8, N-{1-[(3,4-Dihydroxyphenyl)Methyl]-2-(4-Phenylpiperazinyl)Ethyl}-5-Isoquinoline Sulfonamide] are within 1.5-fold of each other in EC50: 1.6 µM for the first, 1.8 µM for the second.

First: O=S(=O)(c1cccc2cnccc12)N1Cc2cc(O)c(O)cc2CC1CN1CCN(c2ccccc2)CC1 (stereo not drawn) [Example 10, 6,7-Dihydroxy-2-(5-Isoquinolinesulfonyl)-3-[(4-Phenylpiperazinyl)methyl]-1,2,3,4-tetrahydroisoquinoline]
Second: CN(C(Cc1ccccc1)CN1CCN(c2ccccc2)CC1)S(=O)(=O)c1cccc2cnccc12 (stereo not drawn) [Example 43, N-[1-benzyl-2-(4-phenylpiperazinyl)ethyl]-N-methyl-5-isoquinolinesulfonamide]
The EC50 of the first is 18-fold higher: 6.4 µM for the first, 0.36 µM for the second.

Compared with `Cc1ccc(S(=O)(=O)Nc2ccc(C[C@@H](C(=O)N3CCN(c4ccccc4)CC3)N(C)S(=O)(=O)c3cccc4cnccc34)cc2)cc1` [Example 22, 1-[N-(5-isoquinolinesulfonyl)-N-methyl-p-(p-toluenesulfonylamino)phenylalanyl]-4-phenylpiperazine], `CN(C(Cc1ccc(OS(=O)(=O)c2cccc3cnccc23)cc1)CN1CCN(c2ccccc2)CC1)S(=O)(=O)c1cccc2cnccc12` (stereo not drawn) [Example 35] is 3.8-fold higher in EC50: 1.8 µM for the first, 6.9 µM for the second. The first is the more potent here.

`O=C(CCc1ccccc1)N1CCN(C(=O)[C@H](Cc2ccc(O)cc2)NS(=O)(=O)c2cccc3cnccc23)CC1` [Example 31, 1-[N-(5-isoquinolinesulfonyl)tyrosyl]-4-(3-phenylpropionyl)piperazine] and `O=C([C@H](Cc1ccc(O)cc1)NS(=O)(=O)c1cccc2cnccc12)N1CCN(CCCc2ccccc2)CC1` [Example 33, 1-[N-(5-Isoquinolinesulfonyl)Tyrosyl]-4-(3-Phenylpropyl)Piperazine] are within error of each other in EC50: 24 ± 7 µM for the first, 21 µM for the second.

Compared with `O=S(=O)(NC(Cc1ccc(OS(=O)(=O)c2cccc3cnccc23)cc1)CN1CCN(c2ccccc2)CC1)c1cccc2cnccc12` (stereo not drawn) [Example 34], `COc1ccc(N2CCN(CC(Cc3ccc(OS(=O)(=O)c4cccc5cnccc45)cc3)NS(=O)(=O)c3cccc4cnccc34)CC2)cc1` (stereo not drawn) [Example 52] is 5.5-fold higher in EC50: 1.8 µM for the first, 9.9 µM for the second.

Going from `COc1ccc(CC(CN2CCN(c3ccccc3)CC2)N(C)S(=O)(=O)c2cccc3cnccc23)cc1` (stereo not drawn) [Example 38, N-[1-(P-Methoxybenzyl)-2-(4-Phenylpiperazinyl)Ethyl]-N-Methyl-5-Isoquinolinesulfonamide] to `COc1ccc(N2CCN(CC(Cc3ccc(O)cc3)N(C)S(=O)(=O)c3cccc4cnccc34)CC2)cc1` (stereo not drawn) [Example 54, N-{1-(p-hydroxybenzyl)-2-[4-(p-methoxyphenyl)piperazinyl]ethyl}-N-methyl-5-isoquinolinesulfonamide], the EC50 falls from 8.1 µM to 1.7 µM (4.8-fold). The second is the more potent here.

Going from `CN(C(Cc1ccc(O)cc1)CN1CCN(c2ncccn2)CC1)S(=O)(=O)c1cccc2cnccc12` (stereo not drawn) [Example 42, N-{1-(p-hydroxybenzyl)-2-[4-(2-pyrimidyl)piperazinyl]ethyl}-N-methyl-5-isoquinolinesulfonamide] to `CN(C(Cc1ccc(O)cc1)CN1CCN(c2ccccn2)CC1)S(=O)(=O)c1cccc2cnccc12` (stereo not drawn) [Example 46, N-{1-(p-hydroxybenzyl)-2-[4-(2-pyridyl)piperazinyl]ethyl}-N-methyl-5-isoquinolinesulfonamide], the EC50 falls from 6.2 µM to 4 µM (1.6-fold). The second is the more potent here.

Going from `CN(C(Cc1ccc(OS(=O)(=O)c2cccc3cnccc23)cc1)CN1CCN(c2ccccn2)CC1)S(=O)(=O)c1cccc2cnccc12` (stereo not drawn) [Example 45, N-{1-[p-(5-isoquinolinesulfonyloxy)benzyl]-2-[4-(2-pyridyl)piperazinyl]ethyl}-N-methyl-5-isoquinolinesulfonamide] to `CN(C(Cc1ccc(OS(=O)(=O)c2cccc3cnccc23)cc1)CN1CCN(c2ccc(F)cc2)CC1)S(=O)(=O)c1cccc2cnccc12` (stereo not drawn) [Example 49], the EC50 falls from 7.5 µM to 0.92 µM (8.2-fold).

Compared with `CN(C(Cc1ccc(O)cc1)CN1CCN(c2cccc(Cl)c2)CC1)S(=O)(=O)c1cccc2cnccc12` (stereo not drawn) [Example 47, N-{2-[4-(m-chlorophenyl)piperazinyl]-1-(p-hydroxybenzyl)ethyl}-N-methyl-5-isoquinolinesulfonamide], `Cc1cccc(N2CCN(CC(Cc3ccc(O)cc3)N(C)S(=O)(=O)c3cccc4cnccc34)CC2)c1` (stereo not drawn) [Example 51, N-{1-(p-hydroxybenzyl)-2-[4-(m-methylphenyl)piperazinyl]ethyl}-N-methyl-5-isoquinolinesulfonamide] is 2.3-fold lower in EC50: 0.39 µM for the first, 0.17 µM for the second.

First: COc1ccc(N2CCN(CC(Cc3ccc(OS(=O)(=O)c4cccc5cnccc45)cc3)N(C)S(=O)(=O)c3cccc4cnccc34)CC2)cc1 (stereo not drawn) [Example 53, N-{1-[p-(5-isoquinolinesulfonyloxy)benzyl]-2-[4-(p-methoxyphenyl)piperazinyl]ethyl}-N-methyl-5-isoquinolinesulfonamide]
Second: COc1ccc(CC(CN2CCN(C(=O)OCc3ccccc3)CC2)N(C)S(=O)(=O)c2cccc3cnccc23)cc1 (stereo not drawn) [Example 72, N-[2-(4-benzyloxycarbonylpiperazinyl)-1-(p-methoxybenzyl)ethyl]-N-methyl-5-isoquinolinesulfonamide]
The EC50 of the first is 3.1-fold lower: 1.3 µM for the first, 4 µM for the second.

First: COc1ccc(N2CCN(CC(Cc3ccc(O)cc3)NS(=O)(=O)c3cccc4cnccc34)CC2)cc1 (stereo not drawn) [Example 55, N-{1-(p-hydroxybenzyl)-2-[4-(p-methoxyphenyl)piperazinyl]ethyl}-5-isoquinolinesulfonamide]
Second: COc1ccccc1N1CCN(CC(Cc2ccc(O)cc2)N(C)S(=O)(=O)c2cccc3cnccc23)CC1 (stereo not drawn) [Example 56, N-{1-(p-hydroxybenzyl)-2-[4-(2-methoxyphenyl)piperazinyl]ethyl}-N-methyl-5-isoquinolinesulfonamide]
The EC50 of the first is 7.2-fold higher: 8.6 µM for the first, 1.2 µM for the second. The second is the more potent here.

`CN(C(Cc1ccc(O)cc1)CN1CCN(S(=O)(=O)c2ccccc2)CC1)S(=O)(=O)c1cccc2cnccc12` (stereo not drawn) [Example 62, N-{2-[(4-Benzenesulfonyl)Piperazinyl)-1-(P-Hydroxybenzyl)-Ethyl}-N-Methyl-5-Isoquinolinesulfonamide] and `CN(C(Cc1ccc(O)cc1)CN1CCN(C(=O)OCc2ccccc2)CC1)S(=O)(=O)c1cccc2cnccc12` (stereo not drawn) [Example 67, N-[2-(4-benzyloxycarbonylpiperazinyl)-1-(p-hydroxybenzyl)ethyl]-N-methyl-5-isoquinolinesulfonamide] are within 1.5-fold of each other in EC50: 2.3 µM for the first, 2.2 µM for the second.

Same assay, conditions: concentration relaxing KCl-contracted strain to 50%; cumulative administration; read-out: V.R. (ED50)

`O=S(=O)(NC(Cc1ccc(O)cc1)CN1CCN(CCCc2ccccc2)CC1)c1cccc2cnccc12` (stereo not drawn) [Example 69, N-{1-(p-hydroxybenzyl)-2-[4-(3-phenylpropyl)piperazinyl]ethyl}-5-isoquinolinesulfonamide] showed an EC50 of 14 µM.
